# Reference: US20260008780A1, “SUBSTITUTED 3,4-DIHYDROISOQUINOLIN-1(2H)-ONE DERIVATIVES AND RELATED USES” (NodThera Limited, priority 2022, published 2026)
# pIC50: −log10 of the molar value.
# Tested on: IL-1β release upon NLRP3 activation in peripheral blood mononuclear cells (PBMC)
# Assay: PBMC IC50 Determination Assay
# Type: cell-based
# Conditions: Homo sapiens; PBMC from buffy coats, LPS 3 h, compound 30 min, then ATP (5 mM) or nigericin (10 μM) 1 h; IL-1β in media by ELISA (Protocol A) or HTRF (Protocol B)
# Experimental: The compounds of the present disclosure were tested for their inhibitory activity against IL-1β release upon NLRP3 activation in peripheral blood mononuclear cells (PBMC).
# Protocol A. PBMC were isolated from buffy coats by density gradient centrifugation on Histopaque-1077 (Sigma, cat no. 10771). Isolated cells were seeded into the wells of a 96-well plate and incubated for 3 h with lipopolysaccharide (LPS). Following medium exchange, the compounds of the present disclosure were added (a single compound per well) and the cells were incubated for 30 min. Next, the cells were stimulated either with ATP (5 mM) or nigericin (10 μM) for 1 h and the cell culture media from the wells were collected for further analysis.
# The release of IL-1β into the media was determined by a quantitative detection of IL-1β in the media using an IL-1p enzyme-linked immunosorbent assay (ELISA) Ready-SET-Go!, eBioscience cat. No. 88-7261-88. Briefly, in a first step, high affinity binding plates (Corning, Costar 9018 or NUNC Maxisorp Cat No. 44-2404) were coated overnight at 4° C. with specific capture antibody included in the kit (anti-human IL-1β ref 14-7018-68). Subsequently, plates were blocked with blocking buffer for 1 h at room temperature (rt) and after washing with a buffer (PBS with 0.05% Tween-20) incubated with protein standard and culture media. After 2 h of incubation at rt, plates were washed and incubated with biotinylated detection antibody included in the kit (anti-human IL-1β Biotin ref. 33-7110-68) for 1 h at rt. Plates were washed and incubated with HRP-streptavidin for 30 min at rt and washed again. The signal was developed after addition of 3,3′,5,5′-tetramethylbenzidine-peroxidase (TMB) until colour appeared and the reaction was stopped by 2 M H2SO4. A microplate spectrophotometer (BioTek) was used to detect signals with 450 nm. The detection range of IL-1β ELISA was […].
# Protocol B. PBMC were isolated from buffy coats by density gradient centrifugation on Histopaque-1077 (Sigma, cat no. 10771). Isolated cells were seeded into the wells (280,000 cells/well) of a 96-well plate and incubated for 3 h with lipopolysaccharide (LPS, 1 μg/mL diluted 1000× from a 1 mg/mL stock solution). The compounds of the present disclosure were added (a single compound per well) and the cells were incubated for 30 min. Next, the cells were stimulated with ATP (5 mM final concentration diluted 20× from a 100 mM stock solution) for 1 h and the cell culture media from the wells were collected for further analysis.
# The release of IL-1β into the media was determined by quantitative detection of IL-1β in the media using HTRF®, CisBio cat. No. 62HIL1BPEH. Briefly, cell culture supernatant were dispensed directly into the assay plate containing antibodies labelled with the HTRF® donor and acceptor. A microplate spectrophotometer (BMG) was used to detect signals at 655 nm and 620 nm. The detection range of IL-1β HTRF® was 39-6500 μg/mL.
row,SMILES,pIC50
1,"CCc1cc2c(s1)C(=O)N(CC(=O)Nc1ncc([N+](=O)[O-])cn1)CC21CC1 [Compound 53, 2-{2′-Ethyl-7′-oxo-6′,7′-dihydro-5′H-spiro[cyclopropane-1,4′-thieno[2,3-c]pyridin]-6′-yl}-N-(5-nitropyrimidin-2-yl)acetamide]",6.00 to 7.00
2,"CC1CN(CC(=O)Nc2ncccn2)C(=O)c2cc3scnc3n21 (centres unmarked) [Compound 67, 2-(5-Methyl-8-oxo-5,6-dihydrothiazolo[5′,4′:4,5]pyrrolo[1,2-a]pyrazin-7(8H)-yl)-N-(pyrimidin-2-yl)acetamide]",6.00 to 7.00
3,"CCc1cc2c(s1)C(=O)N(CC(=O)Nc1ccc(C#N)cn1)CC21CC1 [Compound 55, N-(5-Cyanopyridin-2-yl)-2-{2′-ethyl-7′-oxo-6′,7′-dihydro-5′H-spiro[cyclopropane-1,4′-thieno[2,3-c]pyridin]-6′-yl}acetamide]",5.52 to 6.00
4,"CCc1cc2c(s1)C(=O)N(CC(=O)Nc1ncc(C(F)(F)F)cc1F)CC21CC1 [Compound 56, 2-{2′-Ethyl-7′-oxo-6′,7′-dihydro-5′H-spiro[cyclopropane-1,4′-thieno[2,3-c]pyridin]-6′-yl}-N-[3-fluoro-5-(trifluoromethyl)pyridin-2-yl]acetamide]",5.52 to 6.00
5,"CC1(c2cc3c(s2)C(=O)N(CC(=O)Nc2ncccn2)CC32CC2)CC1 [Compound 27, 2-(2′-(1-Methylcyclopropyl)-7′-oxo-5′H-spiro[cyclopropane-1,4′-thieno[2,3-c]pyridin]-6′(7′H)-yl)-N-(pyrimidin-2-yl)acetamide]",6.00 to 7.00
6,"CC(C)c1cc2c(s1)C(=O)N(CC(=O)Nc1ncccn1)CC21CC1 [Compound 25, 2-(2′-Isopropyl-7′-oxo-5′H-spiro[cyclopropane-1,4′-thieno[2,3-c]pyridin]-6′(7′H)-yl)-N-(pyrimidin-2-yl)acetamide]",6.00 to 7.00
7,"CC(C)c1cc2n(n1)C1(CC1)CN(CC(=O)Nc1ncccn1)C2=O [Compound 8, 2-(2-Isopropyl-4-oxo-spiro[6H-pyrazolo[1,5-a]pyrazine-7,1′-cyclopropane]-5-yl)-N-pyrimidin-2-yl-acetamide]",5.00 to 5.52
8,"CCc1cc2c(s1)C(=O)N(CC(=O)Nc1ccc3nncn3c1)CC21CC1 [Compound 47, 2-{2′-Ethyl-7′-oxo-6′,7′-dihydro-5′H-spiro[cyclopropane-1,4′-thieno[2,3-c]pyridin]-6′-yl}-N-{[1,2,4]triazolo[4,3-a]pyridin-6-yl}acetamide]",5.52 to 6.00
9,"O=C(CN1CC2(CC2)c2cc(C3CC3)sc2C1=O)Nc1ncccn1 [Compound 26, 2-(2′-Cyclopropyl-7′-oxo-5′H-spiro[cyclopropane-1,4′-thieno[2,3-c]pyridin]-6′(7′H)-yl)-N-(pyrimidin-2-yl)acetamide]",6.00 to 7.00
10,"CCNc1cc2c(s1)C(=O)N(CC(=O)Nc1ncccn1)CC21CC1 [Compound 23, 2-(2′-(Ethylamino)-7′-oxo-5′H-spiro[cyclopropane-1,4′-thieno[2,3-c]pyridin]-6′(7′H)-yl)-N-(pyrimidin-2-yl)acetamide]",5.52 to 6.00
11,"CCc1cc2c(s1)C(=O)N(CC(=O)Nc1ncco1)CC21CC1 [Compound 46, 2-{2′-Ethyl-7′-oxo-6′,7′-dihydro-5′H-spiro[cyclopropane-1,4′-thieno[2,3-c]pyridin]-6′-yl}-N-(1,3-oxazol-2-yl)acetamide]",6.00 to 7.00
12,"O=C(CN1CC2(CC2)c2oc(C3CC3)cc2C1=O)Nc1ccc2nncn2c1 [Compound 58, 2-{2′-Cyclopropyl-4′-oxo-5′,6′-dihydro-4′H-spiro[cyclopropane-1,7′-furo[3,2-c]pyridin]-5′-y}—N-{[1,2,4]triazolo[4,3-a]pyridin-6-yl}acetamide]",5.00 to 5.52
13,"O=C(CN1CC2(CC2)c2cc(C3CC3)sc2C1=O)Nc1ncc(F)cn1 [Compound 76, 2-(2′-Cyclopropyl-7′-oxo-5′H-spiro[cyclopropane-1,4′-thieno[2,3-c]pyridin]-6′(7′H)-yl)-N-(5-fluoropyrimidin-2-yl)acetamide]",6.00 to 7.00
14,"O=C(CN1CC2(CC2)c2nc(C3CC3)sc2C1=O)Nc1ncccn1 [Compound 15, 2-(2-Cyclopropyl-4-oxo-spiro[6H-thiazolo[5,4-c]pyridine-7,1′-cyclopropane]-5-yl)-N-pyrimidin-2-yl-acetamide]",6.00 to 7.00
15,"CCc1cc2c(s1)C(=O)N(CC(=O)Nc1ncc(C#N)cc1F)CC21CC1 [Compound 66, N-(5-cyano-3-fluoropyridin-2-yl)-2-(2′-ethyl-7′-oxo-5′H-spiro[cyclopropane-1,4′-thieno[2,3-c]pyridin]-6′(7′H)-yl)acetamide]",6.00 to 7.00
16,"CNc1cc2c(s1)C(=O)N(CC(=O)Nc1ncccn1)CC21CC1 [Compound 74, 2-(2′-(Methylamino)-7′-oxo-5′H-spiro[cyclopropane-1,4′-thieno[2,3-c]pyridin]-6′(7′H)-yl)-N-(pyrimidin-2-yl)acetamide]",6.00 to 7.00
17,"CC1CN(CC(=O)Nc2ncccn2)C(=O)c2cc(C3CC3)oc21 (centres unmarked) [Compound 65, 2-(2-Cyclopropyl-7-methyl-4-oxo-6,7-dihydrofuro[3,2-c]pyridin-5(4H)-yl)-N-(pyrimidin-2-yl)acetamide]",6.00 to 7.00
18,CCc1cc2c(s1)C(C)CN(CC(=O)Nc1ncccn1)C2=O (centres unmarked) [Compound 69],5.52 to 6.00
19,"CCc1cc2c(s1)C(=O)N(CC(=O)Nc1ccc3nncn3n1)CC21CC1 [Compound 45, 2-{2′-Ethyl-7′-oxo-6′,7′-dihydro-5′H-spiro[cyclopropane-1,4′-thieno[2,3-c]pyridin]-6′-yl}-N-{[1,2,4]triazolo[4,3-b]pyridazin-6-yl}acetamide]",6.00 to 7.00
20,"O=C(CN1CC2(CC2)c2oc(C3CC3)cc2C1=O)Nc1ccc2nncn2n1 [Compound 59, 2-{2′-Cyclopropyl-4′-oxo-5′,6′-dihydro-4′H-spiro[cyclopropane-1,7′-furo[3,2-c]pyridin]-5′-yl}-N-{[1,2,4]triazolo[4,3-b]pyridazin-6-yl}acetamide]",6.00 to 7.00
